Results reported in US20140243286A1, “BROMODOMAIN LIGANDS CAPABLE OF DIMERIZING IN AN AQUEOUS SOLUTION, AND METHODS OF USING SAME” (Coferon, Inc., priority 2011, published 2014).
Read-outs that look alike come from different tables or passages of the source.

Tests used:
BRD3 = BRD3 (Homo sapiens, UniProt Q15059); assay: Fluorescence anisotropy (FA) binding assay, BRD3
Description: (§1) Fluorescence Anisotropy (FA) Binding Assays.
(§2) FA assays were performed as described in Chung et al., J. Med Chem., 2011 54(11): 3827-38 except that protein concentrations were 125 nM and plates were read on a Spectramax M5 plate reader.

BRD4 = BRD4 (Homo sapiens, UniProt O60885); assay: Fluorescence anisotropy (FA) binding assay, BRD4
Description: as §1, §2

BRD2 = BRD2 (Homo sapiens, UniProt P25440); assay: Fluorescence anisotropy (FA) binding assay, BRD2
Description: as §1, §2

[1] = BRD3, protein 125 nM, read-out: IC50 range (FA assay) BRD3, BRD-E monomers
[2] = BRD4, protein 125 nM, read-out: IC50 range (FA assay) BRD4, BRD-E monomers
[3] = BRD2, protein 125 nM, read-out: IC50 range (FA assay) BRD2, BRD-E monomers

Sequence of BRD2 (P25440 whole entry): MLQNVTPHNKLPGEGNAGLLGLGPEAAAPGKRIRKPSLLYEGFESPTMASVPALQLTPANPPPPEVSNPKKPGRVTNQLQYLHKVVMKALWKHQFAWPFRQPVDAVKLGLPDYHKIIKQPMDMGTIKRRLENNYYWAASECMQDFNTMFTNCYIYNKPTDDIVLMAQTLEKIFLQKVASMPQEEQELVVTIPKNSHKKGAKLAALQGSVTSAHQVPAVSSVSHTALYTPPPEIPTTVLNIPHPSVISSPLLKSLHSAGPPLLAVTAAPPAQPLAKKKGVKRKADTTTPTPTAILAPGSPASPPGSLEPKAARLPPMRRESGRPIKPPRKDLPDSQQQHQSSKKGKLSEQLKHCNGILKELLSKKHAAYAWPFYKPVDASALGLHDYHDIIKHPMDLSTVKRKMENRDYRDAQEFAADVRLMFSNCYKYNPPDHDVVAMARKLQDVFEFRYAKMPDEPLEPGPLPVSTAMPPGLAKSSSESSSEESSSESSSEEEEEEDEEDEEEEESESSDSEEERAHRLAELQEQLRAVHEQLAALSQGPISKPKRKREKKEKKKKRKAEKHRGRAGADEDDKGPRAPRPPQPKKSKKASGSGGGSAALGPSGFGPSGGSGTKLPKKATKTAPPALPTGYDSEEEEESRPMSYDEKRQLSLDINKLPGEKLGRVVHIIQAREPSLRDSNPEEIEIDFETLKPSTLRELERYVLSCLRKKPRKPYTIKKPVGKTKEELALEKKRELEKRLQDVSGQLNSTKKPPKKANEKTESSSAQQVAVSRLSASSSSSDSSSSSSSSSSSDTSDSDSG
Sequence of BRD3 (Q15059 whole entry): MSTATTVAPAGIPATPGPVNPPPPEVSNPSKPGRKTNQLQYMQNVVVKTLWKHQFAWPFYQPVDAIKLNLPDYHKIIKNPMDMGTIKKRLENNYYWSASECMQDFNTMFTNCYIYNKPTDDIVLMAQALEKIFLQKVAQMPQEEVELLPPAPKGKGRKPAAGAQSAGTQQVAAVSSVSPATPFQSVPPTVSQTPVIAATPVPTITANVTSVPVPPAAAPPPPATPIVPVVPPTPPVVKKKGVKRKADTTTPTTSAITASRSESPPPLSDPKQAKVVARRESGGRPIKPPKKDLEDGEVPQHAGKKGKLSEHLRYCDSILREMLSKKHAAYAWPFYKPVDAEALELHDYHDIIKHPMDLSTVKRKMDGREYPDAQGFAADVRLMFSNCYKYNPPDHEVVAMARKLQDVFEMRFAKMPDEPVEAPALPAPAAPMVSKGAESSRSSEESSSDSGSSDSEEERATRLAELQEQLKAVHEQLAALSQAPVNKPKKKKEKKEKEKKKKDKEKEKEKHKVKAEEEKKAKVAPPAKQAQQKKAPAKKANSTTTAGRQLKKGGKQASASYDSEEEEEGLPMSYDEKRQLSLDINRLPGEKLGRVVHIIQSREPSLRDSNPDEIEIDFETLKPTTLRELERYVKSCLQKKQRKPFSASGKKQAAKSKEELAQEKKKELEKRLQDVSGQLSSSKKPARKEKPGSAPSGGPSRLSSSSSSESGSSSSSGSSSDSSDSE

COc1ccc2c(c1)C(c1ccc(Cl)cc1)=N[C@@H](CC(=O)NCCNC(=O)c1ccc(B(O)O)cc1)c1nnc(C)n1-2 [BRD-E-01, (4-((2-(2-((4S)-6-(4-chlorophenyl)-8-methoxy-1-methyl-4H-benzo[f][1,2,4]triazolo[4,3-a][1,4]diazepin-4-yl)acetamido)ethyl)carbamoyl)phenyl)boronic acid]
IC50 (BRD3): 0.05 to 1 µM | IC50 (BRD4): 0.05 to 1 µM | IC50 (BRD2): 0.05 to 1 µM

COc1ccc2c(c1)C(c1ccc(Cl)cc1)=N[C@@H](CC(=O)NCCNC(=O)c1cccc(B(O)O)c1)c1nnc(C)n1-2 [BRD-E-02, (3-((2-(2-((4S)-6-(4-chlorophenyl)-8-methoxy-1-methyl-4H-benzo[f][1,2,4]triazolo[4,3-a][1,4]diazepin-4-yl)acetamido)ethyl)carbamoyl)phenyl)boronic acid]
IC50 (BRD3): 0.05 to 1 µM | IC50 (BRD4): 0.05 to 1 µM | IC50 (BRD2): 0.05 to 1 µM

COc1ccc2c(c1)C(c1ccc(Cl)cc1)=N[C@@H](CC(=O)NCCCNC(=O)c1ccc(B(O)O)cc1)c1nnc(C)n1-2 [BRD-E-03, (4-((3-(2-((4S)-6-(4-chlorophenyl)-8-methoxy-1-methyl-4H-benzo[f][1,2,4]triazolo[4,3-a][1,4]diazepin-4-yl)acetamido)propyl)carbamoyl)phenyl)-boronic acid]
IC50 (BRD3; [1]): 0.05 to 1 µM | IC50 (BRD4; [2]): 0.05 to 1 µM | IC50 (BRD2; [3]): 0.05 to 1 µM

COc1ccc2c(c1)C(c1ccc(Cl)cc1)=N[C@@H](CC(=O)NCCCNC(=O)c1cccc(B(O)O)c1)c1nnc(C)n1-2 [BRD-E-04, (3-((3-(2-((4S)-6-(4-chlorophenyl)-8-methoxy-1-methyl-4H-benzo[f][1,2,4]triazolo[4,3-a][1,4]diazepin-4-yl)acetamido)propyl)carbamoyl)phenyl)-boronic acid]
IC50 (BRD3; [1]): 0.05 to 1 µM | IC50 (BRD4; [2]): 0.05 to 1 µM | IC50 (BRD2; [3]): 0.05 to 1 µM

COc1ccc2c(c1)C(c1ccc(Cl)cc1)=N[C@@H](CC(=O)NCCCCNC(=O)c1ccc(B(O)O)cc1)c1nnc(C)n1-2 [BRD-E-05, (4-((4-(2-((4S)-6-(4-chlorophenyl)-8-methoxy-1-methyl-4H-benzo[f][1,2,4]triazolo[4,3-a][1,4]diazepin-4-yl)acetamido)butyl)carbamoyl)phenyl)boronic acid]
IC50 (BRD3; [1]): 0.05 to 1 µM | IC50 (BRD4; [2]): 0.05 to 1 µM | IC50 (BRD2; [3]): 0.05 to 1 µM

COc1ccc2c(c1)C(c1ccc(Cl)cc1)=N[C@@H](CC(=O)NCCCCNC(=O)c1cccc(B(O)O)c1)c1nnc(C)n1-2 [BRD-E-06, (3-((4-(2-((4S)-6-(4-chlorophenyl)-8-methoxy-1-methyl-4H-benzo[f][1,2,4]triazolo[4,3-a][1,4]diazepin-4-yl)acetamido)butyl)carbamoyl)phenyl)boronic acid]
IC50 (BRD3; [1]): 0.05 to 1 µM | IC50 (BRD4; [2]): 0.05 to 1 µM | IC50 (BRD2; [3]): 0.05 to 1 µM

COc1ccc2c(c1)C(c1ccc(Cl)cc1)=N[C@@H](CC(=O)NCCCCCNC(=O)c1ccc(B(O)O)cc1)c1nnc(C)n1-2 [BRD-E-07, (4-((5-(2-((4S)-6-(4-chlorophenyl)-8-methoxy-1-methyl-4H-benzo[f][1,2,4]triazolo[4,3-a][1,4]diazepin-4-yl)acetamido)pentyl)carbamoyl)phenyl)-boronic acid]
IC50 (BRD3): 0.05 to 1 µM | IC50 (BRD4): 0.05 to 1 µM | IC50 (BRD2): 0.05 to 1 µM

COc1ccc2c(c1)C(c1ccc(Cl)cc1)=N[C@@H](CC(=O)NCCCCCNC(=O)c1cccc(B(O)O)c1)c1nnc(C)n1-2 [BRD-E-08, (3-((5-(2-((4S)-6-(4-chlorophenyl)-8-methoxy-1-methyl-4H-benzo[f][1,2,4]triazolo[4,3-a][1,4]diazepin-4-yl)acetamido)pentyl)carbamoyl)phenyl)-boronic acid]
IC50 (BRD3; [1]): 0.05 to 1 µM | IC50 (BRD4; [2]): 0.05 to 1 µM | IC50 (BRD2; [3]): 0.05 to 1 µM

COc1ccc2c(c1)C(c1ccc(Cl)cc1)=N[C@@H](CC(=O)NCCNC(=O)Cc1ccc(B(O)O)cc1)c1nnc(C)n1-2 [BRD-E-27, (4-(2-((2-(2-((4S)-6-(4-chlorophenyl)-8-methoxy-1-methyl-4H-benzo[f][1,2,4]triazolo[4,3-a][1,4]diazepin-4-yl)acetamido)ethyl)amino)-2-oxoethyl)phenyl)boronic acid]
IC50 (BRD4; [2]): 1 to 30 µM | IC50 (BRD2; [3]): 1 to 30 µM
